Laboratory results published in US20110098242A1, “Methods and Compositions for Diagnosing and Treating Cervical Intraepithelial Neoplasia and Cervical Cancer” (priority 2008, published 2011).

How the values were obtained:
Assay type in all cases: cell-based, human
cystatin E/M [1] = experiment: Immunofluorescence of cystatin E/M protein in treated HeLa cells; conditions: 24 hours post-treatment, 5 μM 5-AzaCdR
Description: (§1) To verify that cystatin E/M expression was not limited to RNA synthesis and to identify the cellular location of protein expression, immunofluorescence (IF) was used. Cystatin E/M expression was absent in the untreated HeLa cells. […] There was uniform expression in the cytoplasm of all cells. […] Thus, re-expression of the gene by treatment with 5-AzaCdR and TSA in HeLa and SiHa cells, respectively, confirmed promoter methylation and/or histone deacetylation playing a role in the inactivation of cystatin E/M expression in these two cell lines.
(§2) Cells were grown overnight on cover slips to semiconfluency (about 70 to 80%) and treated with 5- AzaCdR or TSA, or transfected with plasmid DNAs. Immunofluorescence was performed using the anti cystatin E/M antibody (R & D Systems, Minneapolis, Minn.) following an established protocol. See LoTempio et al. (2005).

cystatin E/M gene = experiment: RT PCR analysis of cystatin E/M expression in treated SiHa cells
[2] = system: cystatin E/M gene promoter; experiment: Sodium bisulfite PCR and sequencing of cystatin E/M promoter CpG methylation in HeLa cells; conditions: HeLa cells after treatment with 5-AzaCdR
Experimental: Having established the promoter activity, four different cell lines and 18 primary tumors were examined for CpG methylation using the sodium bisulfite protocol. Normal endometrium from 16 of the tumors, four different non-involved normal lymphocytes and a lung tissue were used as controls. The analysis was performed using the sequences spanning the −14 to −151 by region of the promoter (NT—033903.7). […] Untreated HeLa cells yielded the 138 by product with the methylation specific PCR. Cell lines Caski, C41, C33A, three of 21 normal tissues (14%) and 7 of 16 tumors (44%) gave the PCR product with both the unmethylation and methylation specific PCRs. Five other tumors (31%) contained only the methlyation specific product. Thus, there was a significant frequency of methylated promoter in the cervical tumors ([…] in tumors versus 3 of 21, 14% in normals, P<0.01, Student's t-test). Methylation in the three normal endometrial tissues could also represent tumor cell contamination. Four of the tumors contained methylation and point mutation (Table 1, FIG. 4A) indicating possible two hits for the functional inactivation of the cystatin E/M gene.
To confirm promoter hypermethylation in the cell lines, sequencing was carried out on the PCR products cloned into the pTOPO plasmid vector. […]

cystatin E/M [3] = experiment: Immunofluorescence of cystatin E/M protein in treated SiHa cells; conditions: TSA treatment
Description: as §1, §2

Nc1ncn([C@H]2C[C@H](O)[C@@H](CO)O2)c(=O)n1 [5-AzaCdR, 5′Aza 2-deoxycytidine] was tested, and the “cystatin E/M protein expression by immunofluorescence” value (cystatin E/M [1]) was “cystatin E/M expression was observed”, the “cystatin E/M RNA expression” value (cystatin E/M gene; 5 μM and 10 μM 5-AzaCdR) was “did not show expression” and the “cystatin E/M RNA expression” value (cystatin E/M gene; 50 μM 5-AzaCdR) was “low level expression”. The “methylation of C residues in promoter CpG sequences” value [2] was “demethylation of the C residues”.
CC(/C=C/C(=O)NO)=C\[C@@H](C)C(=O)c1ccc(N(C)C)cc1 [TSA, Trichostatin A] was tested, and the “cystatin E/M protein expression by immunofluorescence” value (cystatin E/M [3]) was “uniform cytoplasmic protein expression” and the “cystatin E/M RNA expression” value (cystatin E/M gene; TSA 150 μM) was “High level RNA expression”.
